Two compounds from patent US8080370B2, “Screening method for prophylactic and/or therapeutic agent for disease accompanied by hepatitis C” (Osaka University, priority 2006, dated 2011) can be followed below.

This assay concerns SREBP-1c promoter. In words: SREBP-1c promoter dual luciferase reporter assay in HEK293T cells with RXRα/LXRα ligands. It is filed as cell-based, human. The settings on record: ligand(s) in culture solution for 24 hours, firefly relative to Renilla luciferase. The text has this:
A genome DNA fragment coding the SREBP-1c promoter region (located in residues −410 to +24 base region) from mouse genome was amplified, and the resulting fragment was inserted into KpnI and HindIII sites in pGL3-Basic (manufactured by Promega Corporation), to give pGL3-SREBP-1cPro (FIG. 4a).
Human embryonic kidney cells (HEK293T: cell expressing endogenous […] ) were transformed with the control plasmid coding pGL3-srebp-1cPro and Renilla luciferase (manufactured by Promega Corporation) and together with any one plasmid of (i) vacant plasmid, (ii) plasmid coding the HCV core protein, (iii) plasmid coding RXRα and LXRα, and (iv) plasmid coding RXRα, LXRα and the HCV core protein. The transformant obtained was cultivated in a culture solution containing a RXRα's ligand 9-cis-retinoic acid (9cisRA; product of Sigma Corporation), a LXRα's ligand 22(R)-hydroxycholesterol (22(R)HC), or both of them as additives for 24 hours, and then, the cells were collected; the luciferase activity of the cells was determined, similarly to (1) above, by using the dual luciferase reporter assay system (manufactured by Promega Corporation).

With 9-cis-retinoic acid, the “SREBP-1c promoter activity by the HCV core protein (luciferase activity)” value is listed as “increase in SREBP-1c promoter activity”.

As for `CC(C)CC[C@@H](O)[C@@H](C)[C@H]1CC[C@H]2[C@@H]3CC=C4C[C@@H](O)CC[C@]4(C)[C@H]3CC[C@]12C` [22(R)-hydroxycholesterol], the “SREBP-1c promoter activity by the HCV core protein (luciferase activity)” value is “increase in SREBP-1c promoter activity”.
